The text below walks through data of US5942405A, “Therapeutic and screening methods using C3a receptor and C3a” (priority 1997, dated 1999).

The target of test [1] is T1, C3a Receptor (Homo sapiens, UniProt Q16581).
T1 sequence (Q16581 1-482 F151C): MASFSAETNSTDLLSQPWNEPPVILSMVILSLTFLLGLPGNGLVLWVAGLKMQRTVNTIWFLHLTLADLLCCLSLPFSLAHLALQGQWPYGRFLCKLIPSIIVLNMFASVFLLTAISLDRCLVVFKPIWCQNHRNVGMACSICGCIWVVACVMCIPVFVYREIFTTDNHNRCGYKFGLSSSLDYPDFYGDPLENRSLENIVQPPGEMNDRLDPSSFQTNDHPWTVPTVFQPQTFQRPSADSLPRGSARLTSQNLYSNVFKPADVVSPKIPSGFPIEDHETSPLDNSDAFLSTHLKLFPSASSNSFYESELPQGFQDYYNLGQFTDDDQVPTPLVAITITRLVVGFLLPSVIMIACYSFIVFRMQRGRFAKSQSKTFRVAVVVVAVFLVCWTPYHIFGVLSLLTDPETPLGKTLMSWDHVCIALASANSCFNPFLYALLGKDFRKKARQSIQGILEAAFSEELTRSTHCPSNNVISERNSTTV
Description: Electrophysiological response (Ca2+ mediated chloride currents, two electrode voltage clamp) of Xenopus oocytes injected with C3a Receptor cRNA. The class given is cell-based. Further details: cDNA encoding a complete orphan GPCR of 482 amino acids; expressed in transfected cells; host or cells: Xenopus laevis oocytes microinjected with cRNA, with or without U937 total RNA. Conditions: for electrophysiological response of oocytes expressing C3a Receptor: oocytes co-injected with C3a Receptor cRNA (10 ng) and U937 RNA (25 ng), ligands 10 nM. How it is done:
(A) Electrophysiological response of Xenopus oocytes injected with cRNA for C3a Receptor (10 ng), total U937 RNA (25 ng), or a mixture of C3a Receptor (10 ng) and U937 RNA (25 ng) to 10 nM rC5a, 10 nM C3a analogue peptide, 10 nM platelet activating factor (PAF), 10 nM fMetLeuPhe. Inset, represents typical response of oocytes co-injected with C3a Receptor cRNA+U937 RNA to 10 nM C3a. (B) Electrophysiological response of oocytes injected with C5a-R cRNA (10 ng), U937 RNA (25 ng) or a mixture of C5a-R and U937 RNA, to 10 nM rC5a or 10 nM C3a analogue peptide. […] Calcium mobilization by Fura 2 loaded cells expressing C5a receptor (FIGS. 4A & 4C) or C3a Receptor (FIGS. 4B & 4D) in response to rC5a (10 nM, FIG. 4A or 100 nM, FIG. 4B) or C3a analogue peptide (1 uM, FIGS. 4C & 4D).
Capped cRNA transcripts were generated from linearized C3a Receptor and C5a-R plasmid DNA as previously described (Kumar, C. S., et al (1989) J. Biol. Chem. 264, 17939-17946) and suspended in sterile water at a concentration of 0.2 μg/μl. Ovarian lobes were surgically removed from adult female Xenopus laevis frogs and defolliculated Stage V oocytes were harvested by manual dissection (Smith, L. D., et al (1991) Methods in Cell Biology, 36, 45-54. Edited by B. K. Kay and H. B. Peng, Academic Press Inc., New York.). Oocytes were microinjected with C3a Receptor or C5a-R cRNA transcripts (10 ng/oocyte) with or without U937 total RNA (25 ng/oocyte) in a 50 nl volume using a Drummond microinjection apparatus and maintained in modified Barth's saline (Power, C. A., et al (1995) J. Biol. Chem., 270,19495-19500 ) at 18° C. Electrophysiological recordings from an average of 10 oocytes were made 48 h later at room temperature using the two electrode voltage clamp (Warner Instruments) technique. Membrane potentials were routinely clamped at -60 mV. Results represent average response determined in three separate experiments.
The chemotactic receptors for C5a and the fMLP-R have previously been functionally expressed in Xenopus laevis oocytes (Kroll, B., et al (1991) FEBS Lett. 291, 208-210; Murphy, P. M. & McDermott, D. (1991) J Biol. Chem. 266, 12560-12567; Murphy, P. M., Gallin, E. K., and Tiffany, H. L. (1990) J Immunol. 145, 2227-2234; Schultz, P., et al (1992) Cellular Signalling 4, 153-161) and, unlike all other GPCRs tested in this system, injection of cRNA for the cloned chemotactic receptors alone is insufficient to stimulate signal transduction in response to ligand binding (Kroll, B., et al (1991) FEBS Lett. 291, 208-210; Murphy, P. M. & McDermott, D. (1991) J Biol. Chem. 266, 12560-12567). Functional expression of both of these chemotactic receptors, as monitored by induction of Ca^2+ mediated chloride currents, requires the co-injection of a complimentary human factor which can be supplied by total RNA from myeloid or liver cells (Kroll, B., et al (1991) FEBS Lett. 291, 208-210; Murphy, P. M. & McDermott, D. (1991) J Biol. Chem. 266, 12560-12567). The co-factor is required for receptor-mediated signal transduction but not for expression of the C5a-R or fMLF-R on the surface of the oocytes (Murphy, P. M., et al (1990) J Immunol. 145, 2227-2234). […] Xenopus oocytes were used to functionally characterize C3a Receptor. […] Like the C5a-R and the fMLF-R, the response was dependent on the co-injection of a cofactor present in total HL-60 or U937 RNA. […] (FIG. 3B). Both the C5a-R as well as C3a Receptor elicited in oocytes a promiscuous response to the two anaphylatoxins.

Test [2] has as its system C3a-R. The settings on record: cited from earlier work.
Test [3] deals with guinea pig ileal tissue. The settings on record: C3a and C4a; cited from earlier work.

As to `CSCC[C@H](NC=O)C(=O)N[C@@H](CC(C)C)C(=O)N[C@@H](Cc1ccccc1)C(=O)O` [fMLF, fMetLeuPhe], in test [1], the “electrophysiological response of oocytes expressing C3a Receptor” value was “not”.

Take pertussis toxin: in test [2], the “sensitivity of functional activity of the C3a-R to pertussis toxin” value was “sensitive”. The “effect on response to the C3a peptide of oocytes co-injected with C3a Receptor and U937 RNA” value in test [1] (response to C3a peptide, data not shown) is listed as “abolished”.

On to `CCCCCCCCCCCCCCCCOCC(COP(=O)([O-])OCC[N+](C)(C)C)OC(C)=O` (centres unmarked) [platelet activating factor], for which, in test [1], the “electrophysiological response of oocytes expressing C3a Receptor” value is “not”.

B1: C4a: 74-77 amino acid anaphylatoxins C3a, C4a and C5a (protein, UniProt P0C0L4 680-756, looked up)
C4a anaphylatoxin: NVNFQKAINEKLGQYASPTAKRCCQDGVTRLPMMRSCEQRAARVQQPDCREPFLSCCQFAESLRKKSRDKGQAGLQR
modifications: C4a anaphylatoxin
notes: 74-77 amino acid anaphylatoxins C3a, C4a and C5a
As to B1, the “cross desensitization of guinea pig ileal tissue” value in test [3] is on record as “cross desensitize”.
